Like-named read-outs stand apart in the source and are kept apart here. Marks after values point to notes of the source that are not given here.
How the values were obtained:
pCH0.6.c/2633 = assay: MAGI assay, T/F HIV-1 clone pCH0.6.c/2633; format: cell-based
From the text: (§1) We also examined the activity of GRL-compounds against Transmitter/founder (T/F) HIV-1 viruses. T/F viruses are involved in the initial infection. It is considered that T/F viruses virtually always use CCR5 rather than CXCR4 and infect T cells but not macrophages because […] of CD4 is needed to mediate virus entry for the initial transmission[20]–[24]. […] We obtained four HIV-1 T/F infectious clones. We determined the antiviral activity of GRL-117C, GRL-10007C and GRL-10018C on these HIV-1 clones using MAGI assay.
(§2) MAGI-CCR5 cells[18] were maintained in DMEM supplemented with 10% fetal calf serum (FCS: Gemini Bio-Products, West Sacramento, CA), 200 μg/ml G418, 100 μg/ml hygromycin B, and 100 μg/ml zeomycin. The Chinese hamster ovary (CHO) cells expressing CCR5[19] were maintained in Ham’s F-12 medium (GIBCO-BRL, Rockville, MD) supplemented with 10% FCS, 50 U/ml penicillin, and 50 μg/ml streptomycin in the presence of 5 μg/ml blasticidin S hydrochloride. TZM-bl cells were obtained from the NIH AIDS Reagent Program, and were cultured in DMEM with 10% FCS. Peripheral blood mononuclear cells (PBMCs) were isolated from buffy coats of HIV-1 seronegative individuals, and were activated with 10 μg/ml phytohemagglutinin (PHA) prior to use[16]. A laboratory wild-type R5-HIV-1 strain (HIV-1Ba-L)[37] was employed for drug susceptibility assays. AD101 (experimental CCR5 inhibitor) and VVC-resistant HIV clones[7],[8] were provided by Dr. John P. Moore of Cornell University for this study. The clones were propagated with activated PBMCs, and were used for the assays. […] The following reagents (plasmids) for T/F HIV-1 viruses[22],[24] were obtained through the NIH AIDS Reagent Program, Division of AIDS, NIAID, NIH: pCH040.c/2625 (cat# 11740), pCH106.c/2633 (cat# 11743), pTHRO.c/2626 (cat# 11745), and pCH058.c/2960 (cat# 11856), from Dr. John Kappes and Dr. Christina Ochsenbauer.
(§3) Antiviral assays using PHA-PBMCs (p24 assay) were conducted as previously reported[16],[38]. In brief, PHA-PBMCs (1 × 10^6/ml) were exposed to 50 TCID50 of HIV-1Ba-L or drug-resistant HIV-1 infectious clones in the presence or absence of various concentrations of drugs; 10-fold serial dilutions were performed in 96-well microculture plates. The amount of p24 antigens produced by the cells was determined on day 7 in the culture via a commercially available ELISA kit (PerkinElmer). The p24 production level in drug-free control cell cultures was used as the reference. […] Antiviral assays using MAGI-CCR5 cells (MAGI assay) were conducted as previously reported[16],[39]. Single-round virus infection assays using TZM-bl cells infected with R5-HIV-1s (HIV-1YU2, HIV-1KP-5pc, and HIV-1KP-5mvcR)[10] were also conducted as previously described.

pCH040.c/2625 = assay: MAGI assay, T/F HIV-1 clone pCH040.c/2625; format: cell-based
From the text: as §1, §2, §3

pTHRO.c/2626 = assay: MAGI assay, T/F HIV-1 clone pTHRO.c/2626; format: cell-based
From the text: as §1, §2, §3

R5-HIV-1BaL = assay: p24 assay using PBMCs and R5-HIV-1BaL; format: cell-based; details: Ba-L (PBMCs), day 7
Experimental: (§4) MAGI-CCR5 cells[18] were maintained in DMEM supplemented with 10% fetal calf serum (FCS: Gemini Bio-Products, West Sacramento, CA), 200 μg/ml G418, 100 μg/ml hygromycin B, and 100 μg/ml zeomycin. The Chinese hamster ovary (CHO) cells expressing CCR5[19] were maintained in Ham’s F-12 medium (GIBCO-BRL, Rockville, MD) supplemented with 10% FCS, 50 U/ml penicillin, and 50 μg/ml streptomycin in the presence of 5 μg/ml blasticidin S hydrochloride. TZM-bl cells were obtained from the NIH AIDS Reagent Program, and were cultured in DMEM with 10% FCS. Peripheral blood mononuclear cells (PBMCs) were isolated from buffy coats of HIV-1 seronegative individuals, and were activated with 10 μg/ml phytohemagglutinin (PHA) prior to use[16]. A laboratory wild-type R5-HIV-1 strain (HIV-1Ba-L)[37] was employed for drug susceptibility assays. AD101 (experimental CCR5 inhibitor) and VVC-resistant HIV clones[7],[8] were provided by Dr. John P. Moore of Cornell University for this study. The clones were propagated with activated PBMCs, and were used for the assays. A clinical HIV-1 strain, HIV-1KP-5pc, and an MVC-resistant isolate, HIV-1KP-5mvcR, were prepared and used for antiviral assays, as previously described[10],[38]. The following reagents (plasmids) for T/F HIV-1 viruses[22],[24] were obtained through the NIH AIDS Reagent Program, Division of AIDS, NIAID, NIH: pCH040.c/2625 (cat# 11740), pCH106.c/2633 (cat# 11743), pTHRO.c/2626 (cat# 11745), and pCH058.c/2960 (cat# 11856), from Dr. John Kappes and Dr. Christina Ochsenbauer.
as §3

HIV-1YU2 = assay: TZM-bl single-round infection assay, HIV-1YU2; format: cell-based; details: YU2, drug-sensitive, mean ± SD
Experimental: as §4, §3

HIV-1KP-5mvcR = assay: TZM-bl single-round infection assay, MVC-resistant HIV-1KP-5mvcR; format: cell-based
Experimental: as §4, §3

HIV-1KP-5pc = assay: TZM-bl single-round infection assay, HIV-1KP-5pc; format: cell-based; details: KP-5pc, drug-sensitive clinical strain, TZM-bl assay, mean ± SD
Experimental: as §4, §3

pCH058.c/2960 = assay: MAGI assay, T/F HIV-1 clone pCH058.c/2960; format: cell-based
From the text: as §1, §2, §3

[1] = system: Transmitter/founder (T/F) HIV-1 viruses; assay: MAGI assay, all four T/F viruses (range); format: cell-based; details: four T/F HIV-1 clones, MAGI assay; read-out: IC50 values (range over four T/F viruses)
From the text: as §1
MAGI-CCR5 cells[18] were maintained in DMEM supplemented with 10% fetal calf serum (FCS: Gemini Bio-Products, West Sacramento, CA), 200 μg/ml G418, 100 μg/ml hygromycin B, and 100 μg/ml zeomycin. The Chinese hamster ovary (CHO) cells expressing CCR5[19] were maintained in Ham’s F-12 medium (GIBCO-BRL, Rockville, MD) supplemented with 10% FCS, 50 U/ml penicillin, and 50 μg/ml streptomycin in the presence of 5 μg/ml blasticidin S hydrochloride. TZM-bl cells were obtained from the NIH AIDS Reagent Program, and were cultured in DMEM with 10% FCS. […]
Antiviral assays using PHA-PBMCs (p24 assay) were conducted as previously reported[16],[38]. […] The amount of p24 antigens produced by the cells was determined on day 7 in the culture via a commercially available ELISA kit (PerkinElmer). […]

CC1/85 cl.6 = assay: Anti-HIV-1 assay, drug-naive clinical strain CC1/85 cl.6; format: cell-based
Experimental: as §4, §3

[2] = system: D1/85.16 cl.23 (VVC resistant); assay: microbe, parasite or virus in culture; format: cell-based, HIV-1
Experimental: as §4, §3

[3] = system: CC101.19 cl.7 (AD101 resistant); assay: microbe, parasite or virus in culture; format: cell-based, HIV-1
Experimental: as §4, §3

CC1/85 cl.7 = assay: Anti-HIV-1 assay, drug-naive clinical strain CC1/85 cl.7; format: cell-based
Experimental: as §4, §3

R5-HIV-1Ba-L = assay: MAGI assay using MAGI/CCR5 cells and R5-HIV-1Ba-L; format: cell-based; details: Ba-L (MAGI)
Experimental: as §4, §3

CCR5 [4] = molecular target: T1, CCR5 (Homo sapiens, UniProt P51681); assay: Inhibition of 125I-RANTES binding to CCR5 (CCR5+ CHO cells)
T1 construct: expressed in transfected cells; host or cells: Chinese hamster ovary (CHO) cells expressing CCR5
T1 sequence (P51681 whole entry): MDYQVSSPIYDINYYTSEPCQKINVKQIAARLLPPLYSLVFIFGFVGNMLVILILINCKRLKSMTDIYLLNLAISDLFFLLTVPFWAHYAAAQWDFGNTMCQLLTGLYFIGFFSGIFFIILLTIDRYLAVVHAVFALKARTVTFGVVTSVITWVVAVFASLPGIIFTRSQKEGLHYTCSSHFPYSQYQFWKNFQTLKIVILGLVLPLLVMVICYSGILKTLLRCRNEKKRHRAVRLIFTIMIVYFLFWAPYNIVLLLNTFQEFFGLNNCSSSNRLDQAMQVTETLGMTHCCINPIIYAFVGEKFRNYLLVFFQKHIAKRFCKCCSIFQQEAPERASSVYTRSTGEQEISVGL
Experimental: (§5) In order to determine whether GRL derivatives block the binding of CC-chemokines to CCR5, we conducted a CC-chemokine binding inhibition assay using ^125I-labeled CC-chemokines (^125I-RANTES, ^125I-MIP-1α, and ^125I-MIP-1β) and CCR5 expressing cells.
(§6) CCR5^+ CHO cells were incubated with (A) ^125I-MIP-1α, (B) ^125I-MIP-1β, and (C) ^125I-RANTES (200 ng/ml) in the presence or absence of varying concentrations of CCR5 inhibitors. Data are shown as means ± s.d. of three independent experiments.
(§7) The inhibition of the binding of ^125I-labeled CC-chemokines ([^125I] RANTES, [^125I] MIP-1α, or [^125I] MIP-1β) to CCR5 by various CCR5 inhibitors was measured as previously described. Calcium flux inhibition assays were also performed with CCR5 inhibitors, and were carried out with the Fluo-4 Direct^TM calcium reagent (Invitrogen); assays were conducted as previously described with minor modifications. In brief, CHO-CCR5 cells (5 × 10^5 cells) were exposed to Fluo-4 Direct^TM calcium reagent for 60 min at 37 °C in RPMI containing 5% FCS. Cells were then incubated with the test compound for 30 min at varying concentrations. Subsequently, cells were exposed to either MIP-1α, MIP-1β, or RANTES at 200 ng/ml. Relative increases in cytosolic Ca^2+ levels after chemokine exposure were determined with flow cytometry (FACSCalibur, BD Biosciences), and IC50 values of cytosolic Ca^2+ mobilization (Ca^2+ flux) were compared with the Ca^2+ flux level in drug-free control samples.

CCR5 [5] = molecular target: T1, CCR5; assay: Inhibition of 125I-MIP-1α binding to CCR5 (CCR5+ CHO cells)
Experimental: as §5, §6, §7

CCR5 [6] = molecular target: T1, CCR5; assay: Inhibition of 125I-MIP-1β binding to CCR5 (CCR5+ CHO cells)
Experimental: as §5, §6, §7

[7] = Human immunodeficiency virus 1, MAGI
[8] = Human immunodeficiency virus 1, BAL, PBMC, 168 h
[9] = Human immunodeficiency virus 1, BAL

## Maraviroc [MVC]
pCH0.6.c/2633; T/F clone pCH0.6.c/2633, MAGI assay, mean ± SD, read-out: IC50
  IC50: 0.0023 ± 0.0003 µM
pCH040.c/2625; T/F clone pCH040.c/2625, MAGI assay, mean ± SD, read-out: IC50
  IC50: 0.0017 ± 0.0001 µM
pTHRO.c/2626; T/F clone pTHRO.c/2626, MAGI assay, mean ± SD, read-out: IC50
  IC50: 0.0022 ± 0.0008 µM
R5-HIV-1BaL
  IC50: 0.0045 µM
  IC90: 0.0216 µM
HIV-1YU2
  IC50: 0.0035 ± 0.0025 µM
  IC90: 0.015 µM
HIV-1KP-5mvcR; KP-5mvcR, MVC-resistant, TZM-bl assay, mean ± SD, read-out: IC50
  IC50: 0.036 ± 0.028 µM
HIV-1KP-5mvcR; KP-5mvcR, MVC-resistant, TZM-bl assay, mean ± SD, read-out: IC90 (converted)
  IC90: 0.236 µM
HIV-1KP-5pc; read-out: IC50
  IC50: 0.0085 ± 0.0036 µM
HIV-1KP-5pc; read-out: IC90 (converted)
  IC90: 0.081 µM
pCH058.c/2960; T/F clone pCH058.c/2960, MAGI assay, mean ± SD, read-out: IC50
  IC50: 0.0019 ± 0.0001 µM
[1]
  IC50: 0.0017 to 0.0023 µM
CC1/85 cl.6; CC1/85 cl.6, drug naive R5-HIV-1 clinical strain, read-out: IC50
  IC50: 0.0017 µM
[2]; D1/85.16 cl.23 (VVC resistant) vs CC1/85 cl.7
  fold increases of IC50s compared to wild type (CC1/85 cl.7): (×11)^e fold
[2]; D1/85.16 cl.23 (VVC resistant), read-out: IC50
  IC50: 0.0265 µM
[2]; D1/85.16 cl.23 (VVC resistant), read-out: IC90
  IC90: 0.376 µM
[3]; CC101.19 cl.7 (AD101 resistant) vs CC1/85 cl.7
  fold increases of IC50s compared to wild type (CC1/85 cl.7): (×15)^e fold
[3]; CC101.19 cl.7 (AD101 resistant), read-out: IC50
  IC50: 0.0369 µM
[3]; CC101.19 cl.7 (AD101 resistant), read-out: IC90
  IC90: 0.486 µM
CC1/85 cl.7; CC1/85 cl.7, drug naive R5-HIV-1 clinical strain, read-out: IC50
  IC50: 0.0025 µM
CC1/85 cl.7; CC1/85 cl.7, drug naive R5-HIV-1 clinical strain, read-out: IC90
  IC90: 0.0206 µM
R5-HIV-1Ba-L
  IC50: 0.0007 µM
  IC90: 0.0064 µM

## Cc1cccc(C)c1C(=O)N1C2CCC1CC(N1CCN(C(C)c3ccc(C(F)(F)F)cc3)C(C)C1)C2 (centres unmarked) [GRL-10007C]
pCH0.6.c/2633; [7]
  IC50: 0.0053 ± 0.0034 µM
CCR5 [4]
  EC50: 0.628 µM
CCR5 [4]; in the presence of 1 μM compound
  binding of 125I-RANTES remaining: more than 40%
pCH040.c/2625; [7]
  IC50: 0.0031 ± 0.0003 µM
pTHRO.c/2626; [7]
  IC50: 0.0032 ± 0.0004 µM
R5-HIV-1BaL; [8]
  IC50: 0.0169 µM
  IC90: 0.127 µM
HIV-1KP-5mvcR; in words, data not shown
  activity against MVC-resistant HIV-1 (HIV-1KP-5mvcR): failed to demonstrate activity
pCH058.c/2960; [7]
  IC50: 0.0061 ± 0.0032 µM
CCR5 [5]
  EC50: 0.0011 µM
CC1/85 cl.6; Human immunodeficiency virus 1
  IC50: 0.0125 µM
[2]; Human immunodeficiency virus 1
  IC90: 0.536 µM
[2]; Human immunodeficiency virus 1, D1/85.16 cl.23 (VVC resistant)
  IC50: 0.0569 µM
[3]; Human immunodeficiency virus 1
  IC90: 0.472 µM
[3]; Human immunodeficiency virus 1, CC101.19 cl.7 (AD101 resistant)
  IC50: 0.0411 µM
CC1/85 cl.7; Human immunodeficiency virus 1
  IC50: 0.0158 µM
  IC90: 0.0803 µM
CCR5 [6]
  EC50: 0.0025 µM
R5-HIV-1Ba-L; [9]
  IC50: 0.0014 µM
  IC90: 0.0095 µM

Source: paper PMC6423129, “Activity and structural analysis of GRL-117C: a novel small molecule CCR5 inhibitor active against R5-tropic HIV-1s” (Scientific Reports, 2019)
